Test [1] concerns yeast and other microorganisms. As for the experimental part: (§1) TTD testing was performed using 28 organisms with a target CFU of 10-100 in blood volumes of 0 or 0.5 mL, organism dependent, 3 mL, and 10 mL. The organisms tested are illustrated in FIG. 20. Four different concentrations of iron provided as ferric ammonium citrate (0 g/L, 0.01 g/L, 0.035 g/L, and 0.06 g/L) in the media otherwise as described in Example 1, and three different concentrations of oxygen (47%, 54%, and 60%) were tested. FIG. 21 illustrates the combination of conditions tested. The testing was run in replicates of three. Prior to the day of testing, the bottles were racked and labeled, and the organisms were sub-cultured accordingly. Each organism to be tested was grown overnight on an appropriate plated medium. Each organism was carefully checked for purity. […] The organism is then re-cultured. 0.1 mL of the final organism dilution was dispensed and spread on the appropriate agar for plate counts. Using aseptic technique, each bottle containing 30 ml of microbial growth media was amended with 0, 0.5, 3, or 10 mL of bagged human blood using the appropriate syringe and needle. Paired sets were inoculated with blood from the same donor unit at the same time. The bottles were then inoculated with 0.1 mL of the appropriate organism. After inoculation, the bottles were loaded onto a BACTEC FX instrument using a standard protocol length of 120 hours. Paired bottles were entered into the FX at the same time in adjacent positions. […] The data from each experiment was organized for statistical testing via a general linear model analysis of variance (ANOVA). Blood volumes of 0 or 0.5, 3, and 10 mL were recoded as 0, 3, and 10 mL to help balance the design. Additional models were assessed holding the blood volume constant. FIG. 56 illustrates the results of the ANOVA analyzing the effects of the tested conditions on TTD. FIG. 57 illustrates the results of the ANOVA parameter estimates and prediction equation. There was an expectation that only the yeast category would show a significant effect with the iron addition. Other categories were monitored to ensure no adverse effects.

The test system of another test is Candida albicans. Kind of test: TTD testing with varied iron and O2 (Example 2). It is filed as cell-based. The protocol:
as §1

Another test relates to Candida glabrata. Kind of test: TTD testing with varied iron and O2 (Example 2). It is filed as cell-based. As for the experimental part: as §1
[2] abbreviates: iron 0, 0.01, 0.035, 0.06 g/L tested.

Take `O=O` [oxygen]: the “optimal gaseous headspace O2 concentration for TTD” value is recorded as “about 54%” in test [1]; “about 54%” in the test on Candida albicans (47%, 54%, 60% O2 tested); “about 54%” in the test with Candida glabrata (47%, 54%, 60% O2 tested). For the same molecule, the “effect on TTD of increasing oxygen concentration in headspace gas” value (in test [1] (from 47% to 60% O2); in the test on Candida albicans (from 47% to 60% O2); with Candida glabrata (from 47% to 60% O2)) was “decreased the TTD” each time.
Take ferric ammonium citrate [iron]: the “optimal iron concentration for TTD” value (in test [1] (setting [2]); in the test on Candida albicans (setting [2]); with Candida glabrata (setting [2])) was “about 0.035 g/L” throughout. The “effect on TTD of increasing iron concentration in the media” value was “decreased the TTD” in test [1] (iron from 0 to 0.06 g/L, blood 0/0.5, 3, 10 mL); “decreased the TTD” in the test with Candida albicans (iron from 0 to 0.06 g/L); “decreased the TTD” with Candida glabrata (iron from 0 to 0.06 g/L). Moreover, the “effect of iron on TTD, ANOVA result” value in test [1] (yeast category, general linear model ANOVA) is reported as “lowers the TTD of yeasts”.

These data come from patent US20260226402A1, “IMPROVED MICROBIAL GROWTH MEDIA” (Becton, Dickinson and Company, priority 2023, published 2026).
